A word on the melting point: it is the temperature of the solid-liquid transition.

The values below come from a melting point compilation (Tetko et al.).

Molecule `CC(=O)/C(=N\Nc1ccc(Cl)cc1)C(=O)C(F)(F)F` showed a melting point of 124 °C.
Molecule `CCCCCCCCCC(=O)CCCCCC` had a melting point of 37 °C.
`COC(=O)c1cccc(Cl)c1` had a melting point of 21 °C.
The molecule `O=[N+]([O-])c1cc([N+](=O)[O-])c(C=Nc2ccccc2)cc1C=Nc1ccccc1` returned a melting point of 165 °C.
Take `O=C(O)CCc1ccc(O)c(O)c1`: the melting point was 138 °C.
As for `Cc1cc(Cl)ccc1Cl`, the melting point was 5 °C.
For `O=C(Cl)c1cccc2c1OCCO2` the value was 98 to 99 °C; for `O=C(CN1CCNCC1)N1CCOCC1`, 63 to 65 °C; for `CC(C)(C)OC(=O)NCc1cccc(CO)c1`, 51 to 55 °C.
`CC(C)Nc1ccc(Cl)cc1[N+](=O)[O-]` registered a melting point of 72 to 74 °C.
`Cc1ccc(C(=O)NN)cc1` had a melting point of 117 °C.
`Nc1nc(-c2ccccc2)cs1` displayed a melting point of 150 °C.
`CSc1nc(N)nc(C23CC4CC(CC(C4)C2)C3)n1` had a melting point of 208 to 210 °C.
`CCOP(=O)(OCC)OC(=CCl)c1ccc(Cl)cc1Cl` gave a melting point of -20 °C.
For `C/C(=N/Nc1ccccc1)C1=Cc2ccccc2C1` the value was 225 °C; for `COC1(OC)CC[C@]2(C)[C@H]3CC[C@]4(C)C(=O)CC[C@@]4(O)[C@@H]3CC[C@@]2(C)C1`, 175 to 176 °C.
Molecule `Cn1ccc2cc(N)ccc21` showed a melting point of 102 to 103 °C.
In turn, `Cc1ccc([N+](=O)[O-])c(C)n1` yielded a melting point of 32 to 38 °C.
For `CC(C)(CO)C(=O)O`, the melting point is 124 °C.
`CC(C)CC(N)C(=O)Nc1ccc([N+](=O)[O-])cc1` (stereo not drawn) yielded a melting point of 90 °C.
As for `COc1ccc2c(-c3ccccc3)c(-c3ccccc3)[nH]c2c1`, the figure is 210 to 214 °C; as for `CC(=O)N1C(=O)N2CCc3ccccc3C2(c2ccc(Cl)cc2)C1=O` (stereo not drawn), 135 to 136 °C.
The molecule `O=C(O)C1C(C(=O)O)C2(Cl)C(Cl)=C(Cl)C1(Cl)C2(Cl)Cl` (stereo not drawn) showed a melting point of 209 °C.
`O=C(Nc1ccc(Br)cc1)c1c(O)cccc1O` registered a melting point of 229 °C.
With `O=[N+]([O-])c1cc2c(cc1CO)OCO2`, the melting point turned out to be 123 °C.
Turning to `C=C1CC2C(CCC3(C)C(=O)CCC23)C2(C)C=CC(=O)C=C12` (stereo not drawn), the melting point is 190 °C.
`CC(=O)OC1CCC2(C)C(=CCC3C2CCC2(C)C3CCC2C2(CBr)OCCO2)C1` (stereo not drawn) gave a melting point of 170 to 172 °C.
`CCC(N)(CO)CO` displayed a melting point of 37.5 °C.
As for `NNC(=O)c1ccc(O)c(N)c1`, the figure is 251 °C; as for `O=C1C=C(NCc2ccc([N+](=O)[O-])cc2)C(=O)c2ccccc21`, 235 °C; as for `O=C1CCc2cc(F)ccc21`, 39 °C.
For `Fc1cc(Br)c(Cl)c(Br)c1` the value was 86 °C; for `COC(=O)C1(S(=O)(=O)c2ccc([N+](=O)[O-])cc2)CC1`, 127 °C; for `CCc1oc2ccccc2c1C(=O)c1ccc(O)cc1`, 124 °C.
In turn, `O=C(O)c1cn(S(=O)(=O)c2ccccc2)c2ccccc12` showed a melting point of 232 °C.
As to `Ic1ccc(N2CCOCC2)cc1`, the melting point lay in the range of 131 to 132 °C.
As to `FC(F)(F)C1(F)C(F)(F)C(F)(F)C(F)(F)C(F)(F)C1(F)F`, the melting point was -37 °C.
As to `O=C(O)CCC(=O)Nc1ccc(S(=O)(=O)Nc2nccs2)cc1`, the melting point is 194 °C.
As for `OCc1ccc(-c2ccco2)s1`, the figure is 56 to 57 °C; as for `Cc1oc(-c2ccccc2)nc1C(=O)O`, 182 to 183 °C; as for `O=Cc1c(-c2ccccc2)nc2n1CCS2`, 127 to 128 °C.
As for `COc1c2occc2c(OC)c2c(=O)cc(C)oc12`, the figure is 155 °C; as for `Cc1cc(C(C)(C)C)cc(C)c1O`, 82.4 °C; as for `COc1ccc(C=CC(=O)c2ccc(F)cc2)c(OC)c1`, 117 to 122 °C.
For the molecule `O=C(CBr)Nc1ccccc1Cl`, the melting point was 89 to 91 °C.
As to `CC(=O)C(C)=NO`, the melting point turned out to be 76.8 °C.
In turn, `CC(C)(c1cc(Cl)c(O)c(Cl)c1)c1cc(Cl)c(O)c(Cl)c1` returned a melting point of 135 °C.
The molecule `Nc1ccc(Oc2ccc(Br)cc2)nc1` registered a melting point of 107 to 109 °C.
In turn, `Fc1ccc(NC(=S)Nc2cc(Cl)cc(Cl)c2)cc1` gave a melting point of 164 °C.
With `COc1ccc(C(=O)NCc2cccnc2)cc1C(=O)NCc1cccnc1`, the melting point amounted to 124 °C.
`COC1=C(C(C)(C)C(C)C)C(=O)C(=O)c2ccccc21`: the melting point lay within 93.3 to 93.6 °C.
Take `O=C(O)c1ccc(Oc2cccnc2)o1`: the melting point lay within 150 to 153 °C.
The molecule `O=C(O)c1ccnc(C(=O)O)c1` showed a melting point of 249 °C.
As to `Nc1ccc(S(=O)(=O)Nc2ccnn2-c2ccccc2)cc1`, the melting point is 181 °C.
Regarding `OCC(F)(F)C(F)(F)C(F)(F)C(F)(F)C(F)(F)C(F)(F)C(F)(F)F`, the melting point is 43 to 47 °C.
In turn, `CCOc1ccccc1C(N)=O` displayed a melting point of 133 °C.
For `CC1(c2ccccc2)CC(C(=NOCC(=O)c2ccccc2)c2cc3ccccc3o2)C1` (stereo not drawn) the value was 154 to 155 °C.
`CCCS(=O)CCC` yielded a melting point of 22.5 °C.
On to `C(=NC(N=Cc1ccco1)c1ccco1)c1ccco1` (stereo not drawn), for which the melting point stood at 117 °C.
`COC(=O)c1sccc1Oc1ccc(C(F)(F)F)cc1[N+](=O)[O-]` came in with a melting point of 112 to 113 °C.
`COC(=O)c1c(O)cc(O)cc1O` gave a melting point of 177 °C.
`CC1C(=O)C23C4CC5C(C)(C)CCC(=O)C56COC(CC1C2OC(C)(C)O4)C63` (stereo not drawn) returned a melting point of 252 °C.
`CCOC(=O)c1cn2c(n1)sc1ccccc12`: the melting point is 133 to 134 °C.
Consider `CC(=O)Oc1c[nH]c2ccccc12`, for which the melting point stood at 129 °C.
Take `Nc1c(Br)cc(Br)cc1C(=O)O`: the melting point fell in the range of 235 to 236 °C.
The molecule `CC(=O)Nc1ccccc1C(=O)c1ccccc1` returned a melting point of 88 °C.
Consider `Cc1cc2ccccc2s1`, for which the melting point amounted to 52 °C.
For the molecule `COc1ccc(F)c(F)c1O`, the melting point was 46 °C.
On to `O=C1c2ccccc2C(=O)c2cc3ccccc3cc21`, for which the melting point amounted to 291 °C.
The molecule `NC(=O)C[C@H](NC(=O)OCC1c2ccccc2-c2ccccc21)C(=O)O` yielded a melting point of 180 °C.
Consider `CCOC(=O)c1cc(-c2cccs2)n(C)n1`, for which the melting point lay within 38 to 41 °C.
In the case of `O=C(Nc1ccc(O)cc1)c1ccccc1O`, the melting point stood at 179 °C.
Regarding `CNC(=O)ON=C(C)C(C)S(C)(=O)=O` (stereo not drawn), the melting point turned out to be 87 °C.
As for `CC1(C)OC(=O)C(=NNc2ccc(Cl)cc2)C(=O)O1`, the figure is 156 °C; as for `CC1(C(=O)O)CCCC2(C)c3cc(O)ccc3CCC12` (stereo not drawn), 194 °C; as for `CC(=O)OCC(=O)C1(O)CCC2C3CC(C)C4=CC(=O)C=CC4(C)C3C(O)CC21C` (stereo not drawn), 206 °C.
`CC(C)c1ncc[nH]1`: the melting point was determined as 129 °C.
For the molecule `Cc1nc(-c2cccc(C(=O)Cl)c2)no1`, the melting point was 93 °C.
The molecule `CC(C)(C)OC(=O)N[C@@H](Cc1ccccc1)C(=O)O` came in with a melting point of 85 to 88 °C.
In turn, `N#Cc1ccc(N)c(Cl)c1` yielded a melting point of 101 °C.
`O=[N+]([O-])c1cc(Cl)c(Cl)cc1Nc1ccccn1` displayed a melting point of 156 °C.
`C=C(C)c1cc(=O)c(O)ccc1CC=C(C)C` had a melting point of 71.5 °C.
`C=CCC1(C(C)C)C(=O)NC(=O)N(C)C1=O` (stereo not drawn) showed a melting point of 56.5 °C.
For `CCCOC(=O)C1=C(C)NC(=O)NC1c1ccc2c(c1)OCO2` (stereo not drawn) the value was 184 to 185 °C; for `CC1(C)C(N)=[N+]([O-])C(c2ccccc2)N1O` (stereo not drawn), 208 to 210 °C.
For `CC(C)C(=O)NN` the value was 97 to 100 °C; for `O=C(Cc1ccccc1)OCc1ccccc1[N+](=O)[O-]`, 54 °C.
Turning to `C=C[N+](=O)[O-]`, the melting point is -55.5 °C.
In turn, `CC1=C(O)C(=O)CC1` had a melting point of 106 °C.
Regarding `O=c1cc[nH]c(=O)o1`, the melting point was 156 °C.
For the molecule `CCN(CC)C(=O)CSc1ccc(Cl)nn1`, the melting point came out at 98 °C.
For `Oc1ccccc1C1CCCC1`, the melting point is 34.5 °C.
As for `Cc1ccc(C(=O)/C=C/c2ccc(-c3ccc(Cl)cc3)o2)o1`, the melting point worked out at 171 °C.
For `COC(=O)c1ccc(N=C=S)cc1` the value was 48 °C.
The molecule `Oc1cccc(S)c1` had a melting point of 16.5 °C.
Regarding `O=[N+]([O-])c1cc(Br)cc2c1NCC2`, the melting point turned out to be 131 °C.
For the molecule `CCCCc1c(C)nc(NC(=O)NS(=O)(=O)c2cccs2)nc1Cl`, the melting point lay within 188 to 189 °C.
On to `Cc1ncc([N+](=O)[O-])n1CC(O)CCl` (stereo not drawn), for which the melting point was found to be 77.5 °C.
`CC(=O)OC1C(O)C2=C(C(=O)C(OC(C)=O)C3(CC3C)C2=O)C2(C)CCC(OC(C)=O)C(C)(C)C12` (stereo not drawn): the melting point is 116 to 117 °C.
`O=C(Nc1ccccc1)OC1C=CC=CC(OC(=O)Nc2ccccc2)C1` (stereo not drawn) registered a melting point of 181 °C.
For `COc1ccc(C(=O)Oc2ccc(/C=C/C(=O)c3ccccc3)cc2)cc1`, the melting point was 156 °C.
In turn, `FC(F)CBr` showed a melting point of -75 °C.
`Cc1cc(C)c(C2(C)CC(C(=O)c3cc4ccccc4o3)C2)c(C)c1` (stereo not drawn) returned a melting point of 147 to 148 °C.
`O=C(O)c1sccc1Br`: the melting point amounted to 196 °C.
In turn, `CCOC(=O)c1sc(-c2ccccn2)nc1CBr` returned a melting point of 102 °C.
As for `CC(=O)CCC1C(=O)N(c2ccccc2)N(c2ccccc2)C1=O`, the figure is 116 °C; as for `Nc1cc(C(=O)O)ccc1C(=O)O`, 324 °C; as for `CC(=O)Oc1c(-c2ccccc2)[nH]c2cc(N)c(/C=C/c3ccccc3)cc12`, 266 °C.
